The values below come from patent publication US9624549B2, “Stable gene targets in breast cancer and use thereof for optimizing therapy” (Cytognomix Inc., priority 2012, dated 2017).

“And” between values parts separate entries of the source, which are not always exact repeats. Equal values may be shown once. Read-outs that look alike come from different tables or passages of the source.

In one assay the test system is BT549. As to conditions: BT549 cell line; replicate assays; cited from earlier work.
Assay [1] has as its system HS578T. The following applies: HS578T cell line; replicate assays; cited from earlier work.
Another assay relates to MCF7. The following applies: MCF7 cell line; replicate assays; cited from earlier work.
Another assay deals with MDAMB231. The following applies: MDA231 (MDAMB231) cell line; replicate assays; cited from earlier work.
Another assay has as its system T47D. The following applies: T47D cell line; replicate assays; cited from earlier work.
For assay [2], the system named is triple-negative breast cancer cell lines. As to conditions: triple-negative breast cancer cell lines (Liu et al. 2009); cited from earlier work.
The subject of assay [3] is HS578T. Nature of the assay: GI50 of breast cancer cell lines from NCI60 panel. The format is cell-based. The following applies: Homo sapiens, Hs-578T, mean of replicate GI50s, read-out: mean concentration (GI50) (converted). An excerpt: Certain anti-breast cancer therapies have been evaluated in the NCl-60 panel of cancer cell lines (Staunton J E, Slonim D K, Coller H A, Tamayo P, Angelo M J, Park J, Scherf U, Lee J K, Reinhold W O, Weinstein J N and others. 2001. Chemosensitivity prediction by transcriptional profiling. Proc Natl Acad Sci USA 98:10787-92.) including four cell lines we studied (MCF7, MDA-MB-231, HS578T, and T-47D). We have confirmed stable copy numbers for a representative group of target genomic intervals in 5 breast cancer lines (MCF7, MDAMB231, HS578T, T47D and SKBR-3). Despite the lack of stratification in pathology in the tumors studied, genomic architectures and functions were preserved in these regions. Paclitaxel and its derivatives, estrone, estradiol, and topotecan are common therapies that act on multiple products encoded by dually stable genes which may, in part, explain why they are effective for inhibiting growth of these cell lines and for treating breast cancer.

Turning to `Nc1ccn([C@@H]2O[C@H](CO)[C@@H](O)C2(F)F)c(=O)n1` [Gm, gemcitabane], the GI50 in the assay on BT549 was 7.80 −log10M and 8.00 −log10M; in the assay with HS578T [1], 5.65 −log10M and 4.00 −log10M; with MCF7 it was 7.99 −log10M and 8.00 −log10M; with MDAMB231 it was 5.86 −log10M and 6.28 −log10M and 6.03 −log10M; with T47D it was 6.26 −log10M and 8.00 −log10M and 5.86 −log10M.
Consider `S=c1nc[nH]c2nc[nH]c12` [Me, mercaptopurine], for which the GI50 is 4.52 −log10M and 3.74 −log10M and 4.00 −log10M in the assay on BT549; 4.85 −log10M and 4.84 −log10M with HS578T [1]; 5.78 −log10M and 5.74 −log10M and 5.82 −log10M in the assay on MCF7; 4.61 −log10M and 5.14 −log10M in the assay on MDAMB231; 5.45 −log10M and 5.62 −log10M with T47D.
`CN(C)C(=N)N=C(N)N` [Metformin]: the anti-cancer activity result in assay [2] was “has anti-cancer activity”.
In the case of `CC(=O)O[C@H]1C(=O)[C@@]2(C)[C@H]([C@H](OC(=O)c3ccccc3)[C@]3(O)C[C@H](OC(=O)[C@H](O)[C@@H](NC(=O)c4ccccc4)c4ccccc4)C(C)=C1C3(C)C)[C@]1(OC(C)=O)CO[C@@H]1C[C@@H]2O` [Pa, Paclitaxel], the GI50 in the assay with HS578T [3] was 0.00316 µM; in the assay with BT549, 9.30 −log10M and 7.60 −log10M and 8.45 −log10M; in the assay on HS578T [1], 8.81 −log10M and 8.22 −log10M and 8.52 −log10M; in the assay on MCF7, 9.06 −log10M and 8.01 −log10M and 8.53 −log10M; with MDAMB231 it was 8.56 −log10M and 7.27 −log10M and 7.91 −log10M; with T47D, 6.56 −log10M and 7.27 −log10M and 6.91 −log10M.
`CC[C@@]1(O)C(=O)OCc2c1cc1n(c2=O)Cc2cc3c(CN(C)C)c(O)ccc3nc2-1` [To, topotecan]: the GI50 in the assay with HS578T [3] is 28.2 µM; in the assay with BT549, 7.36 −log10M and 7.05 −log10M and 7.32 −log10M; in the assay on HS578T [1], 5.96 −log10M and 5.14 −log10M and 5.73 −log10M; in the assay on MCF7, 8.09 −log10M and 7.79 −log10M and 7.83 −log10M; in the assay with MDAMB231, 6.41 −log10M and 5.67 −log10M and 5.65 −log10M; in the assay with T47D, 8.24 −log10M and 7.82 −log10M and 7.73 −log10M.
